How the values were obtained:
[1] = system: primary cultures of rat myocardial cells; test: Staurosporine-induced decrease in cell viability (WST-8) in primary cultures of rat myocardial cells; format: cell-based; conditions: for cytotoxicity induced in cultured myocardial cells: 1 μM staurosporine, HCO3−-free culture medium versus ordinary culture medium
Description: The myocardial cells used in the experiments were those of primary cultures from rats. In order to prepare primary cultures of myocardial cells, heart was excised from SD rats at day 20 of pregnancy (purchased from Japan SLC Co., Ltd.) and enzyme-digested with collagenase (Worthington Biochemical Corp.) and trypsin (GIBCO BRL, Gaithersberg, Md.) to isolate myocardial cells and make a cell suspension of them. As an ordinary culture medium, D-MEM supplemented with fetal bovine serum (FBS) to give a concentration of 10% (GIBCO BRL, Gaithersberg, Md.) was employed. For checking to see if Cl^−/HCO3^− anion exchangers (AEs) would be involved in apoptosis in cardiovascular cells and in protection from it, Leibovitz's L-15 Medium supplemented with FBS to give a concentration of 10% (GIBCO BRL, Gaithersberg, Md.) was employed as an HCO3^−-free culture medium and the result from it was compared with the result from the ordinary culture medium. The HCO3^−-free culture medium was employed in order to suppress the function of the Cl^−/HCO3^− anion exchangers by depleting HCO3^−. The Cl^−/HCO3^− anion exchangers are widely distributed in erythrocytes and other tissues, AE1 being expressed primarily in erythrocytes and AE3 in myocardial cells and neurons. By coupling the exclusion of intracellular Cl^− to the outside of cells and intake of extracellular HCO3^− into the cells, the exchangers function as an intracellular Cl^− and pH regulating system and they also work as a cell volume regulating system during regulatory volume increase (RVI). In a pathological context, it is speculated that the exchangers participate in the process of myocardial cells' acidification which accompanies ischemia.
A suspension of myocardial cells at a density of 3-5×10^5 cells/mL was dispensed in 24-well multiwell plates (Falcon) in an amount of 0.5 mL per well, or in 96-well multiwell plates (Falcon) in an amount of 0.1 mL per well, or in 12-well multiwell plates (Falcon) in an mount of 1 mL per well. The plates were placed in a CO2 incubator and cultured in 5% CO2 at 37° C. for 2-3 days. The thus cultured cells were used in subsequent experiments.
A control group consisted of three culture media, a cell-free medium (blank), a cell-containing medium alone (D-MEM) and 0.3% DMSO [D-MEM supplemented with 0.3% DMSO (DOJINDO LABORATORIES, Kumamoto, Japan)]. A test group consisted of three culture media containing a drug or drugs under specified conditions, i.e., a solution of 1 μM staurosporine (Sigma) dissolved in 0.3% DMSO, a mixed solution of the 1 μM staurosporine and 125-1000 μM SITS (SIGMA CHEMICAL Co., St. Louis, Mo., USA), and a mixed solution of the 1 μM staurosporine and 62.5-250 μM DIDS (SIGMA CHEMICAL Co., St. Louis, Mo., USA); the culture media of the test group are hereunder referred to as “conditioned culture media”.
Specifically, after aspirating away a culture medium, a fresh medium of the control group or a conditioned culture medium of interest was added in 24-well multiwell plates in an amount of 0.5 mL/well. After adding the conditioned culture medium, the plates were placed in a CO2 incubator and cultured in 5% CO2 at 37° C. for 2-4 hours. When a conditioned culture medium based on the HCO3^−-free culture medium was added, the plates were placed in an atmospheric incubator and cultured at 37° C. […]

[2] = system: caspase-3 activity of cultured rat myocardial cells; test: Staurosporine-induced increase in caspase-3 activity of cultured myocardial cells (Caspase-3 Assay Kit, Fluorimetric; AMC formation); format: cell-based; conditions: 1 μM staurosporine + 250 μM DIDS, 12-well multiwell plates, FIG. 5
Experimental: The caspase-3 activity of the thus prepared cells was measured with Caspase-3 Assay Kit, Fluorimetric (SIGMA CHEMICAL, Co., St. Louis, Mo., USA).
More specifically, 12-well multiwell plates were cultured for 2 hours after adding a conditioned culture solution, which was then removed and further cultivation was effected for an appropriate period, mostly for 2 hours; thereafter, cell lysates were prepared using Caspase-3 Assay Kit, Fluorimetric; in the subsequent stage, the amount of formation of specific fluorochrome 7-amino-4-methylcoumarin (AMC) was measured by means of a fluorometric microplate reader (SPECTRA Fluor, Wako Pure Chemical Industries, Ltd., Osaka, Japan) according to the procedure of measurement with the Kit; and the amount of AMC formation was used as an index of caspase-3 activity. […]

Row | SMILES | suppression of the staurosporine-induced drop in cell viability ([1]; 1 μM staurosporine + 62.5, 125 or 250 μM DIDS, 24-well multiwell plates, FIG. 4) | suppression of the staurosporine-induced decrease in cell viability ([1]; HCO3−-free culture medium, 1 μM staurosporine + 62.5, 125 or 250 μM DIDS, 24-well multiwell plates, FIG. 6) | apoptosis suppressing effect on myocardial cells ([1]; overall conclusion from Examples 1-6) | suppression of the staurosporine-induced increase in caspase-3 activity [2] | cytotoxicity induced in cultured myocardial cells ([1]; 24-well multiwell plates, FIG. 6) | cytotoxicity induced in cultured myocardial cells ([1]; 96-well multiwell plates, FIG. 7)
1 | O=S(=O)(O)c1cc(N=C=S)ccc1C=Cc1ccc(N=C=S)cc1S(=O)(=O)O [DIDS, 4,4′-diisothiocyanostilbene-2,2′-disulfonic acid] | suppresses the drop in cell viability in a dose-dependent manner | suppressed the decrease in cell viability in a dose-dependent manner | exhibit the apoptosis suppressing effect on myocardial cells | suppresses the staurosporine-induced increase in caspase-3 activity |  | 
2 | CN[C@@H]1C[C@H]2O[C@@](C)([C@@H]1OC)n1c3ccccc3c3c4c(c5c6ccccc6n2c5c31)C(=O)NC4 [staurosporine] |  |  |  |  | comparable levels of cytotoxicity was induced by staurosporine | comparable levels of cytotoxicity was induced on the 96-well multiwell plates by staurosporine
